From patent US7687526B2, “Benzo-fused compounds for use in treating metabolic disorders” (Amgen Inc., priority 2006, dated 2010)

Legend:
human GPR40 = target: T1, human GPR40 (Homo sapiens, UniProt O14842); assay: Cell-based aequorin assay using human GPR40; settings: CHO cells stably transfected with GPR40 and Aequorin; 0.01% HSA; aequorin luminescence; read-out: Relative EC50
T1 construct: expressed in transfected cells; host or cells: CHO cells
Procedure: Cell-based aequorin assays were employed to characterize the modulatory activity of compounds on the GPR40 signaling pathway. In an exemplary assay, CHO cells were stably transfected with both GPR40 and Aequorin (Euroscreen). Cells were detached from the tissue culture dish with 2 mL of trypsin (0.25% (w/v)). Trypsinization was halted with 28 mL of Hanks Buffered Salt Solution containing 20 mM Hepes (H/HBSS) and 0.01% fatty acid-free human serum albumin (HSA). Coelantrazine is added to 1 ug/mL, and the cells were incubated for 2 hours at room temperature. Compounds were dissolved in DMSO for preparation of 10 mM stock solutions. Compounds were diluted in H/HBSS containing 0.01% HSA. Serial dilutions of the test compounds were prepared to determine dose response.
Aequorin luminescence measurements were made using an EG&G Berthold 96-well luminometer, and the response was measured over a 20 second interval after cells and compounds were mixed. The maximum relative light units was plotted to determine dose response. The EC50 (effective concentration to reach 50% maximal response) was determined from the dose response plot.
Table 1 presents representative data (EC50 values) obtained for exemplary compounds of the invention for the relative activation of human GPR40. […]

Human islets = assay: Insulin secretion assay; format: cell-based; settings: human islet cells, KRBH with 11.2 mM glucose, insulin measured by SPA; read-out: EC50 of stimulated insulin secretion from islet cells
Procedure: Human islets were isolated from cadaveric donors. Islets were treated with trypsin (0.25% (w/v) and cells were seeded in 96-well plates containing 3,000 cells per well. Cells were cultured in Roswell Park Memorial Institute (RMPI) media containing 10% fetal bovine serum.
For determination of insulin secretion, media was removed from islet cells and replaced with Krebs-Ringer bicarbonate buffer containing 10 mM HEPES (KRBH) and 2 mM glucose. After one hour incubation, media was replaced with KRBH containing 11.2 mM glucose and test compounds. Insulin released into the medium from the islet cells was measured using scintillation proximity assay (SPA).

T1 sequence (O14842 whole entry): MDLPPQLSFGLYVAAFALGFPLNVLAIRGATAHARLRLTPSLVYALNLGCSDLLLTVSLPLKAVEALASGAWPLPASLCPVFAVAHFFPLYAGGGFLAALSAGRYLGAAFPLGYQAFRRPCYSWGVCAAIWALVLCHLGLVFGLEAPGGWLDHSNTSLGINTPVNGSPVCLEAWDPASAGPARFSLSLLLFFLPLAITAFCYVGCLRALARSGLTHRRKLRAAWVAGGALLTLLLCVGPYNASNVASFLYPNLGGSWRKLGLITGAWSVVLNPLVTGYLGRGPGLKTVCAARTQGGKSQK

Row | EC50 (human GPR40) | EC50 (Human islets) | SMILES
1 | 1 to 10 µM |  | CC#C[C@H](CC(=O)O)c1ccc(OCc2ccc3c(c2)C(C)(C)CCC3(C)C)cc1 [Example 20, (R)-3-(4-((5,5,8,8-Tetramethyl-5,6,7,8-tetrahydronaphthalen-2-yl)methoxy)phenyl)hex-4-ynoic acid]
2 | 1 to 10 µM |  | Cn1ccnc1[C@@H](CC(=O)O)c1ccc(OCc2ccc3c(c2)C(=O)CCC3(C)C)cc1 [Example 81, (S)-3-(4-((5,5-Dimethyl-8-oxo-5,6,7,8-tetrahydronaphthalen-2-yl)methoxy)phenyl)-3-(1-methyl-1H-imidazol-2-yl)propanoic acid]
3 | 1 to 10 µM |  | Cn1ccnc1[C@@H](CC(=O)O)c1ccc(OCc2ccc3c(c2)OCCO3)cc1 [Example 86, (S)-3-(4-((2,3-Dihydrobenzo[b][1,4]dioxin-6-yl)methoxy)phenyl)-3-(1-methyl-1H-imidazol-2-yl)propanoic acid]
4 |  | < 1 µM | CC1(C)CCC(C)(C)c2cc(COc3ccc(C(CC(=O)O)c4cncnc4)cc3)ccc21 (racemic) [Example 9, (R/S)-3-Pyrimidin-5-yl-3-[4-(5,5,8,8-tetramethyl-5,6,7,8-tetrahydro-naphthalen-2-ylmethoxy)-phenyl]-propionic acid]
5 | 0.1 to 1 µM |  | Cn1ccnc1[C@@H](CC(=O)O)c1ccc(OCc2ccc3c(c2)CCCC3(C)C)cc1 [Example 75, (S)-3-(4-((5,5-dimethyl-5,6,7,8-tetrahydronaphthalen-2-yl)methoxy)phenyl)-3-(1-methyl-1H-imidazol-2-yl)propanoic acid]
6 | 0.01 to 0.1 µM |  | CC#CC(CC(=O)O)c1ccc(OCc2ccc3c(c2)C[C@H](c2ccc(Cl)cc2)O3)cc1 (single isomer, unassigned) [Example 77]
7 | 0.1 to 1 µM |  | Cn1ccnc1[C@@H](CC(=O)O)c1ccc(OCc2ccc3c(c2)OC(F)(F)O3)cc1 [Example 82, (S)-3-(4-((2,2-difluorobenzo[d][1,3]dioxol-5-yl)methoxy)phenyl)-3-(1-methyl-1H-imidazol-2-yl)propanoic acid]
8 | 0.1 to 1 µM |  | Cn1ccnc1[C@@H](CC(=O)O)c1ccc(OCc2ccc3c(c2)C(C)(C)CC3(C)C)cc1 [Example 80, (S)-3-(1-Methyl-1H-imidazol-2-yl)-3-(4-((1,1,3,3-tetramethyl-2,3-dihydro-1H-inden-5-yl)methoxy)phenyl)propanoic acid]
9 | 1 to 10 µM |  | CC#C[C@@H](CC(=O)O)c1ccc(OCc2ccc3c(c2)C(C)(C)CCC3(C)C)cc1 [Example 19, (S)-3-(4-((5,5,8,8-Tetramethyl-5,6,7,8-tetrahydronaphthalen-2-yl)methoxy)phenyl)hex-4-ynoic acid]
10 | 0.01 to 0.1 µM |  | CC1(C)CCC(C)(C)c2cc(COc3ccc([C@H](CC(=O)O)C4=NOCC4)cc3)ccc21 [Example 74, 3-(4,5-Dihydroisoxazol-3-yl)-3-(4-((5,5,8,8-tetramethyl-5,6,7,8-tetrahydronaphthalen-2-yl)methoxy)phenyl)propanoic acid]
11 | 1 to 10 µM |  | CC1(C)CCC(C)(C)c2cc(COc3ccc([C@H](/C=C/Cc4ccccc4)CC(=O)O)cc3)ccc21 [Example 84, (S,E)-6-Phenyl-3-(4-((5,5,8,8-tetramethyl-5,6,7,8-tetrahydronaphthalen-2-yl)methoxy)phenyl)hex-4-enoic acid]
12 | 0.1 to 1 µM |  | CC1(C)CCC(C)(C)c2cc(COc3ccc([C@H](CC(=O)O)c4ncco4)cc3)ccc21 [Example 12, (S)-3-Oxazol-2-yl-3-[4-(5,5,8,8-tetramethyl-5,6,7,8-tetrahydro-naphthalen-2-ylmethoxy)-phenyl]-propionic acid]
13 | 0.01 to 1 µM |  | CCC1(CC)CCC(C)(C)c2ccc(COc3ccc([C@H](CC(=O)O)c4nnnn4C)cc3)cc21 [Example 73, (S)-3-(4-((8,8-diethyl-5,5-dimethyl-5,6,7,8-tetrahydronaphthalen-2-yl)methoxy)phenyl)-3-(1-methyl-1H-tetrazol-5-yl)propanoic acid]
14 | 1 to 10 µM |  | CC1(C)CCC(C)(C)c2cc(COc3ccc([C@@H](/C=C/Cc4ccccc4)CC(=O)O)cc3)ccc21 [Example 83, (R,E)-6-Phenyl-3-(4-((5,5,8,8-tetramethyl-5,6,7,8-tetrahydronaphthalen-2-yl)methoxy)phenyl)hex-4-enoic acid]
15 | 0.01 to 0.1 µM |  | CCC1(CC)CCC(C)(C)c2ccc(COc3ccc([C@H](CC(=O)O)c4ccon4)cc3)cc21 [Example 72, (S)-3-(4-((8,8-diethyl-5,5-dimethyl-5,6,7,8-tetrahydronaphthalen-2-yl)methoxy)phenyl)-3-(isoxazol-3-yl)propanoic acid]
16 |  | < 1 µM | Cn1cncc1[C@@H](CC(=O)O)c1ccc(OCc2ccc3c(c2)C(C)(C)CCC3(C)C)cc1 [Example 4, (S)-3-(1-methyl-1H-imidazol-5-yl)-3-(4-((5,5,8,8-tetramethyl-5,6,7,8-tetrahydronaphthalen-2-yl)methoxy)phenyl)propanoic acid]
17 | 1 to 10 µM |  | CC/C(C)=C/[C@H](CC(=O)O)c1ccc(OCc2ccc3c(c2)C(C)(C)CCC3(C)C)cc1 [Example 79, (S,E)-5-Methyl-3-(4-((5,5,8,8-tetramethyl-5,6,7,8-tetrahydronaphthalen-2-yl)methoxy)phenyl)hept-4-enoic acid]
18 | 0.1 to 1 µM |  | CC/C(C)=C/[C@@H](CC(=O)O)c1ccc(OCc2ccc3c(c2)C(C)(C)CCC3(C)C)cc1 [Example 78, (R,E)-5-Methyl-3-(4-((5,5,8,8-tetramethyl-5,6,7,8-tetrahydronaphthalen-2-yl)methoxy)phenyl)hept-4-enoic acid]
19 | 0.01 to 0.1 µM |  | CC#CC(CC(=O)O)c1ccc(OCc2ccc3c(c2)C[C@@H](c2ccc(Cl)cc2)O3)cc1 (single isomer, unassigned) [Example 76]
